Laboratory results published in ChEMBL document CHEMBL5346920, “Development of the "hidden" multi-target-directed ligands by AChE/BuChE for the treatment of Alzheimer's disease” (Eur J Med Chem, 2023).
pIC50: −log10 of the molar value.

What was measured:
Homo sapiens = organism: Homo sapiens; experiment: Selectivity index, ratio of IC50 for inhibition of human recombinant MAO-A expressed in baculovirus-infected BTI cells to IC50 for inhibition of human recombinant MAO-B expressed in baculovirus-infected BTI cells
[1] = target: T1, Amine oxidase [flavin-containing] A (Homo sapiens, UniProt P21397); experiment: Inhibition of human recombinant MAO-A expressed in baculovirus-infected BTI cells using kynuramine as substrate incubated for 30 mins by fluorescence based analysis
T1 sequence (P21397 whole entry): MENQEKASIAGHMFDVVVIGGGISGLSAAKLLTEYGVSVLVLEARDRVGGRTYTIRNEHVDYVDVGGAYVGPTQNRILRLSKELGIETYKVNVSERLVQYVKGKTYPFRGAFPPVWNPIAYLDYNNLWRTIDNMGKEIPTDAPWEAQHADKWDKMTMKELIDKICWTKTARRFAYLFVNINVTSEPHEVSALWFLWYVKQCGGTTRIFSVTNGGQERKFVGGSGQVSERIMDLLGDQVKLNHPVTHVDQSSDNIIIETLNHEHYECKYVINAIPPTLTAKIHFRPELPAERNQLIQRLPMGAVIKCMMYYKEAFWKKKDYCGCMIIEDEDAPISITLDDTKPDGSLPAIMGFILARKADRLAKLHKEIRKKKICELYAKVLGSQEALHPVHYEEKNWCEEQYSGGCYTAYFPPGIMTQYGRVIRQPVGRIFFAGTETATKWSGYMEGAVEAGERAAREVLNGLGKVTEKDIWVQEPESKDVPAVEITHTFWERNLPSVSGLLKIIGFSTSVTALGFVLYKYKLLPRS

[2] = target: T2, Amine oxidase [flavin-containing] B (Homo sapiens, UniProt P27338); experiment: Inhibition of human recombinant MAO-B expressed in baculovirus-infected BTI cells using kynuramine as substrate incubated for 30 mins by fluorescence based analysis
T2 sequence (P27338 whole entry): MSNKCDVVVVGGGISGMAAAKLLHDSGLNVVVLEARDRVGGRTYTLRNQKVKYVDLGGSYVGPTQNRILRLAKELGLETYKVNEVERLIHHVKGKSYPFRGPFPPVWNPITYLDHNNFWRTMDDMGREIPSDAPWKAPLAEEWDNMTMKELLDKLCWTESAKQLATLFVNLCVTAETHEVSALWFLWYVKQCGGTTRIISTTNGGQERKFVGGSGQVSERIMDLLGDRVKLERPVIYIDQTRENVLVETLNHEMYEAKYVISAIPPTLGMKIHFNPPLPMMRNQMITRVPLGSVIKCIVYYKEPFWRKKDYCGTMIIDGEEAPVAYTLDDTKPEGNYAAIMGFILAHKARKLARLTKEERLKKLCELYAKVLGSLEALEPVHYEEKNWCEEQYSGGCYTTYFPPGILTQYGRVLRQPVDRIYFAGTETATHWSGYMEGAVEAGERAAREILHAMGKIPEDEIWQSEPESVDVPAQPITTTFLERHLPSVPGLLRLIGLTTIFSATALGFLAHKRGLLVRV

[3] = target: T1, Amine oxidase [flavin-containing] A; experiment: Inhibition of human recombinant MAO-A expressed in baculovirus-infected BTI cells using kynuramine as substrate at 62.5 uM incubated for 30 mins by fluorescence based analysis; conditions: 0.5 h
[4] = target: Acetylcholinesterase (Electrophorus electricus) (UniProt O42275); experiment: Reversible inhibition of electric eel AChE assessed as enzyme activity using acetylthiocholine iodide as substrate measured after dilution to 0.1XIC50 for 120 mins by Ellman's method; design: scale not given: the % may be the effect or the level left
[5] = target: Cholinesterase (Equus caballus) (UniProt P81908); experiment: Reversible inhibition of equine serum BuChE assessed as enzyme activity using butyrylthiocholine chloride as substrate measured after dilution to 0.1XIC50 for 240 mins by Ellman's method; type: cell-free; design: scale not given: the % may be the effect or the level left
BV-2 [6] = experiment: Anti-inflammatory activity against LPS-stimulated mouse BV-2 cells assessed as inhibition of LPS-induced IL-6 production by measuring IL-6 level at 1 uM incubated for 24 hrs in presence of LPS (reference value: 1503.2 pg/ml); type: functional
BV-2 [7] = experiment: Anti-inflammatory activity against LPS-stimulated mouse BV-2 cells assessed as inhibition of LPS-induced IL-1 beta production by measuring IL-beta level at 1 uM incubated for 24 hrs in presence of LPS (reference value: 221.3 pg/ml); type: functional
PC-12 [8] = experiment: Neuroprotective activity against Amyloid beta(25 to 35)-induced cell injury in rat PC12 cells assessed as cell viability at 10 uM pretreated for 2 hrs followed by incubation with Abeta(25 to 35) for 24 hrs by CCK-8 assay (reference value: 41 to 58.6%); type: functional; conditions: time 26 hrs, read-out: Activity
BV-2 [9] = experiment: Anti-inflammatory activity against LPS-stimulated mouse BV-2 cells assessed as inhibition of LPS-induced IL-6 production by measuring IL-6 level at 3 uM incubated for 24 hrs in presence of LPS (reference value: 1503.2 pg/ml); type: functional
BV-2 [10] = experiment: Cytotoxicity against mouse BV-2 cells assessed as reduction in cell viability at 10 uM by CCK8 assay; type: toxicity, cell-based; conditions: bv-2, 10 µM
BV-2 [11] = experiment: Anti-inflammatory activity against LPS-stimulated mouse BV-2 cells assessed as inhibition of LPS-induced NO production incubated for 24 hrs in presence of LPS; type: functional, cell-based; conditions: dose 1-9 µM
BV-2 [12] = experiment: Anti-inflammatory activity against LPS-stimulated mouse BV-2 cells assessed as inhibition of LPS-induced IL-6 production by measuring IL-6 level at 9 uM incubated for 24 hrs in presence of LPS (reference value: 1503.2 pg/ml); type: functional
PC-12 [13] = experiment: Cytotoxicity against rat PC-12 cells assessed as cell viability at 40 uM by CCK-8 assay; type: toxicity, cell-based; conditions: pc-12, 40 µM
BV-2 [14] = experiment: Anti-inflammatory activity against LPS-stimulated mouse BV-2 cells assessed as inhibition of LPS-induced IL-1 beta production by measuring IL-beta level at 3 uM incubated for 24 hrs in presence of LPS (reference value: 221.3 pg/ml); type: functional
PC-12 [15] = experiment: Neuroprotective activity against Amyloid beta(25 to 35)-induced cell injury in rat PC12 cells assessed as cell viability at 20 uM pretreated for 2 hrs followed by incubation with Abeta(25 to 35) for 24 hrs by CCK-8 assay (reference value: 41 to 58.6%); type: functional; conditions: time 26 hrs, read-out: Activity
BV-2 [16] = experiment: Anti-inflammatory activity against LPS-stimulated mouse BV-2 cells assessed as inhibition of LPS-induced IL-1 beta production by measuring IL-beta level at 9 uM incubated for 24 hrs in presence of LPS (reference value: 221.3 pg/ml); type: functional
[17] = target: Amyloid-beta precursor protein (Homo sapiens) (UniProt P05067); experiment: Inhibition of self-induced Amyloid beta (1 to 42) (unknown origin) aggregation at 25 uM incubated for 24 hrs by thioflavin T-based fluorescence analysis
PC-12 [18] = experiment: Neuroprotective activity against Amyloid beta(25 to 35)-induced cell injury in rat PC12 cells assessed as cell viability at 5 uM pretreated for 2 hrs followed by incubation with Abeta(25 to 35) for 24 hrs by CCK-8 assay (reference value: 41 to 58.6%); type: functional; conditions: time 26 hrs, read-out: Activity
[19] = Cytotoxicity against mouse BV-2 cells assessed as cell viability at 30 uM by CCK8 assay; type: toxicity, cell-based; conditions: BV-2 cells, read-out: Activity

Sequence of Cholinesterase (Equus caballus) (P81908 whole entry): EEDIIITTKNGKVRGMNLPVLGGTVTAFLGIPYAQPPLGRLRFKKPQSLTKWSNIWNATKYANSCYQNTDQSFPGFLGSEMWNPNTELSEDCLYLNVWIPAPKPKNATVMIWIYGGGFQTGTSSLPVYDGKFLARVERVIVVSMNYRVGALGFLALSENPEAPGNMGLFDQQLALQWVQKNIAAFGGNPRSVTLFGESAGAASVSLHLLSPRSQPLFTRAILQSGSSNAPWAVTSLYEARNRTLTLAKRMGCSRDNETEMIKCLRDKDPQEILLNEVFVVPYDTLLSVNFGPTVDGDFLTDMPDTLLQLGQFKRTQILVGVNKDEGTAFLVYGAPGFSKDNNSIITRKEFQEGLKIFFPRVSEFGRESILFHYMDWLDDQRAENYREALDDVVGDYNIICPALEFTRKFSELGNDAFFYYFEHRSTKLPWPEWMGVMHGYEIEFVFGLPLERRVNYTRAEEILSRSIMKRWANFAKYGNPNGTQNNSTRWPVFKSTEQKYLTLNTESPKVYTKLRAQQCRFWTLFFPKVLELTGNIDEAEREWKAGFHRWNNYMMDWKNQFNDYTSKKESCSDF
Sequence of Acetylcholinesterase (Electrophorus electricus) (O42275 24-633 limits assumed): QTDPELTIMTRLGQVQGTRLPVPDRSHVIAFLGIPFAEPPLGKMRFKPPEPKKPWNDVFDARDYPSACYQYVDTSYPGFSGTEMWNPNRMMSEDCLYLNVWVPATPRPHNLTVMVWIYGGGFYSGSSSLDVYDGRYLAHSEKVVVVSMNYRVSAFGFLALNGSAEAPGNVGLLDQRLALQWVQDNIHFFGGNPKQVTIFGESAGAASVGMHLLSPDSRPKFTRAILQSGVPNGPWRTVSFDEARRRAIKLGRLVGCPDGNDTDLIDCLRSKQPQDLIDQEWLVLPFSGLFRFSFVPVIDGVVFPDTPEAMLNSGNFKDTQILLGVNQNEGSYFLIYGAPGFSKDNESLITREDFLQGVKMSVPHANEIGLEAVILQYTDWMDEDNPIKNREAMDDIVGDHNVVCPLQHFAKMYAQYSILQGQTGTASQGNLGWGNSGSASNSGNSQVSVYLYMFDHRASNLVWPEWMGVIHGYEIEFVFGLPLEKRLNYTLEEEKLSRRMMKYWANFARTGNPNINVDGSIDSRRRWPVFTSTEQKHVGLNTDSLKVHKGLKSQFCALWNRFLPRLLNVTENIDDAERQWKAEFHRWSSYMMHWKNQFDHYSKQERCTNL
Sequence of Amyloid-beta precursor protein (Homo sapiens) (P05067 whole entry): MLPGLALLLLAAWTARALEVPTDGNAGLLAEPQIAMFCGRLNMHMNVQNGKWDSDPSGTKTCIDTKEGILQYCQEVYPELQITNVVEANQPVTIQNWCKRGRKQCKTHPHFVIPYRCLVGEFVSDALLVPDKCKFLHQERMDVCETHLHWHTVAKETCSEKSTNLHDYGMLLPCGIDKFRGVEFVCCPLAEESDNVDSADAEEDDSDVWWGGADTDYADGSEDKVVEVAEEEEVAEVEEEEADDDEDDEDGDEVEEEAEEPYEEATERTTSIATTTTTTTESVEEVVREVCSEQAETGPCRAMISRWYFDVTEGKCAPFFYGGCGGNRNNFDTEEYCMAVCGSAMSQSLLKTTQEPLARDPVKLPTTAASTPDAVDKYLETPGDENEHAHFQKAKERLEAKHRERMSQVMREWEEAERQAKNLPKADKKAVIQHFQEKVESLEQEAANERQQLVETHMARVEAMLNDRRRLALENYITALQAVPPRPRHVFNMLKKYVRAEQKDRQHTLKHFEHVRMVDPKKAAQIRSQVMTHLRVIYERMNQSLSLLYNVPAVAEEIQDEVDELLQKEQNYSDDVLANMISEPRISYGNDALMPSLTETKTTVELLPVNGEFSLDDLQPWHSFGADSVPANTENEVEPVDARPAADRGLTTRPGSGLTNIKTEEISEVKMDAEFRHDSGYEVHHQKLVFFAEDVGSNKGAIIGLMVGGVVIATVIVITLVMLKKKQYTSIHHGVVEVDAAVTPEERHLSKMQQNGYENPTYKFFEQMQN

SMILES	Ratio IC50 (Homo sapiens)	pIC50 [1]	pIC50 [2]	inhibition at 62.5 µM [3] [%]	also measured
COc1cccc(/C=C/C(=O)c2ccccc2O)c1	10.5	4.45	5.47		
O=C(/C=C/c1ccc(Cl)cc1)c1ccccc1O	7.7	4.10	4.99		
COc1ccc2cc(/C=C/C(=O)c3ccccc3O)ccc2c1			4.11	< 15	
O=C(/C=C/c1c(F)cccc1Br)c1ccccc1O			5.33	< 15	
CCN(C)C(=O)Oc1cccc([C@H](C)N(C)C)c1					Activity [4]: 94.7%; Activity [5]: 81.2%
O=C(/C=C/c1c(Br)cccc1Br)c1ccccc1O			4.22	< 15	
O=C(/C=C/c1ccccc1F)c1ccccc1O			4.90	< 15	
O=C(/C=C/c1ccc(O)cc1)c1ccccc1O	82.6	4.18	6.10		Activity (BV-2 [6]): 763.2 pg/mL; Activity (BV-2 [7]): 147.6 pg/mL; viability at 10 µM (PC-12 [8]): 91%; Activity (BV-2 [9]): 489.3 pg/mL; Activity (BV-2 [10]): Non-Toxic; Activity (BV-2 [11]): Dose-Dependent Effect; Activity (BV-2 [12]): 337.5 pg/mL; Activity (PC-12 [13]): Non-Toxic; Activity (BV-2 [14]): 77.6 pg/mL; viability at 20 µM (PC-12 [15]): 94.6%; Activity (BV-2 [16]): 50.9 pg/mL; inhibition [17]: 80.7%; viability at 5 µM (PC-12 [18]): 88.9%; viability at 30 µM [19]: 71.5%
COc1ccc(Br)cc1/C=C/C(=O)c1ccccc1O			4.56	< 15	
